Assay results taken from US7842710B2, “Carboxamides” (Bayer Cropscience AG, priority 2004, dated 2010).
Values belong to the molecule of their own block, whether it stands above or below them.

Tests used:
[1] = logP determination by HPLC on a reverse phase column (C18), EEC Directive 79/831 Annex V.A8; type: physicochemical; details: pH 2 as printed, HPLC C18, 43° C.
[2] = tested on: Podosphaera leucotricha; assay: Podosphaera test (apple)/protective; type: in vivo; details: protective, application rate 100 g/ha, evaluation ten days after inoculation, 0% = control, 100% = no infestation
Method: (§1) [table] To produce an appropriate active ingredient preparation, one part by weight of the active substance is mixed with the specified quantities of solvent and emulsifying agent, and the concentrate is diluted with water to the desired concentration. Young plants are sprayed with the active ingredient preparation at the specified application rate to test the effectiveness of protection. After the sprayed coating has dried, the plants are inoculated with an aqueous spore suspension of the apple mildew pathogen Podosphaera leucotricha. Then the plants are placed in the greenhouse at about 23° C. with relative humidity of about 70%. The evaluation is performed ten days after the inoculation. A degree of effectiveness rating of 0% corresponds to the control, with 100% indicating no infestation observed.

[3] = tested on: Venturia inaequalis; assay: Venturia test (apple)/protective; type: in vivo; details: protective, application rate 100 g/ha, evaluation ten days after inoculation, 0% = control, 100% = no infestation
Method: as §1, with “conidia” for “spore”, “scab” for “mildew”, “Venturia inaequalis and are then kept in an incubator at 20° C. and 100% relatively humidity for one day.” for “Podosphaera leucotricha.”, “21°” for “23°”, “90%.” for “70%.”

[4] = tested on: Botrytis cinerea; assay: Botrytis test (bean)/protective; type: in vivo; details: protective, application rate 500 g/ha, evaluation two days after inoculation, 0% = control, 100% = no infestation
Method: [table] To produce an appropriate active ingredient preparation, one part by weight of the active substance is mixed with the specified quantities of solvent and emulsifying agent, and the concentrate is diluted with water to the desired concentration. Young plants are sprayed with the active ingredient preparation at the specified application rate to test the effectiveness of protection. After the sprayed coating has dried, two small pieces of agar with cultured Botrytis cinerea are placed on each leaf. The inoculated plants are placed in a darkened chamber at about 20° C. and 100% relatively humidity. Two days after the inoculation, the size of the infestation spots on the leaves is evaluated. A degree of effectiveness rating of 0% corresponds to the control, with 100% indicating no infestation observed.

[5] = tested on: Puccinia recondita; assay: Puccinia test (wheat)/protective; type: in vivo; details: 240 h, protective, application rate 500 g/ha, evaluation ten days after inoculation, 0% = control, 100% = no infestation, read-out: Degree of effectiveness in %
Method: [table] To produce an appropriate active ingredient preparation, one part by weight of the active substance is mixed with the specified quantities of solvent and emulsifying agent, and the concentrate is diluted with water to the desired concentration. Young plants are sprayed with the active ingredient preparation at the specified application rate to test the effectiveness of protection. After the sprayed coating has dried, the plants are sprayed with a conidia suspension of Puccinia recondita. The plants are kept in an incubator at 20° C. and 100% relatively humidity for 48 hours. Then the plants are placed in a greenhouse at a temperature of about 20° C. and a relatively humidity of 80%, in order to promote the development of rust spots. The evaluation is performed ten days after the inoculation. A degree of effectiveness rating of 0% corresponds to the control, with 100% indicating no infestation observed.

[6] = tested on: Alternaria solani; assay: Alternaria test (tomato)/protective; type: in vivo; details: protective, application rate 750 g/ha, evaluation seven days after inoculation, 0% = control, 100% = no infestation
Method: [table] To produce an appropriate active ingredient preparation, one part by weight of the active substance is mixed with the specified quantities of solvent and emulsifying agent, and the concentrate is diluted with water to the desired concentration. Young tomato plants are sprayed with the active ingredient preparation at the specified application rate to test the effectiveness of protection. One day after treatment, the plants are inoculated with a spore suspension of Alternaria solani and are kept for 24 hours at 100% relatively humidity and 20° C. Subsequently, the plants are kept at 96% relatively humidity and a temperature of 20° C. The evaluation is performed seven days after the inoculation. A degree of effectiveness rating of 0% corresponds to the control, with 100% indicating no infestation observed.

chromatographic logP [1]: 1.99
Structure (SMILES): CC(C)S(=O)(=O)C(C)c1ccccc1[N+](=O)[O-] (stereo not drawn) [VII-4, 1-[1-(isopropylsulfonyl)ethyl]-2-nitrobenzene]

Structure (SMILES): Cc1nn(C)c(F)c1C(=O)Nc1ccccc1C(C)SC(C)C (stereo not drawn) [drawing 482]
Degree of effectiveness in % [2]: 91%

Structure (SMILES): CC(C)SC(C)c1ccccc1NC(=O)c1cn(C)nc1C(F)F (stereo not drawn) [drawing 483]
Degree of effectiveness in % [2]: 84%

Structure (SMILES): CCC(C)SC(C)c1ccccc1NC(=O)c1cn(C)nc1C(F)F (stereo not drawn) [drawing 484]
Degree of effectiveness in % [2]: 94%

Structure (SMILES): Cc1nn(C)c(F)c1C(=O)Nc1ccccc1C(C)SC(C)C (stereo not drawn) [drawing 485]
Degree of effectiveness in % [3]: 95%

Structure (SMILES): CCCC(C)SC(C)c1ccccc1NC(=O)c1sc(C)nc1C(F)(F)F (stereo not drawn) [drawing 486]
Degree of effectiveness in % [3]: 89%

Structure (SMILES): CCC(C)SC(C)c1ccccc1NC(=O)c1cn(C)nc1C(F)F (stereo not drawn) [drawing 487]
Degree of effectiveness in % [3]: 99%

Structure (SMILES): CC(C)SC(C)c1ccccc1NC(=O)c1cn(C)nc1C(F)(F)F (stereo not drawn) [drawing 488]
Degree of effectiveness in % [4]: 84%

Structure (SMILES): CC(C)SC(C)c1ccccc1NC(=O)c1cn(C)nc1C(F)F (stereo not drawn) [drawing 489]
Degree of effectiveness in % [4]: 100%

Structure (SMILES): CCCC(C)SC(C)c1ccccc1NC(=O)c1sc(C)nc1C(F)(F)F (stereo not drawn) [drawing 490]
Degree of effectiveness in % [4]: 99%

Structure (SMILES): CCC(C)SC(C)c1ccccc1NC(=O)c1cn(C)nc1C(F)(F)F (stereo not drawn) [drawing 491]
Degree of effectiveness in % [4]: 100%

Structure (SMILES): CCCC(C)SC(C)c1ccccc1NC(=O)c1cn(C)nc1C(F)F (stereo not drawn) [drawing 492]
Degree of effectiveness in % [4]: 97%

Structure (SMILES): CC(C)SC(C)c1ccccc1NC(=O)c1cn(C)cc1C(F)(F)F (stereo not drawn) [drawing 493]
Degree of effectiveness in % [4]: 97%

Structure (SMILES): Cc1nc(C(F)F)c(C(=O)Nc2ccccc2CSC(C)C)s1 [drawing 495]
pest or weed control at 500 g/ha [5]: 93%

Structure (SMILES): CCCC(C)SC(C)c1ccccc1NC(=O)c1sc(C)nc1C(F)(F)F (stereo not drawn) [drawing 496]
pest or weed control at 500 g/ha [5]: 100%

Structure (SMILES): CCC(C)SC(C)c1ccccc1NC(=O)c1c(C)nn(C)c1F (stereo not drawn) [drawing 497]
pest or weed control at 500 g/ha [5]: 100%

Structure (SMILES): CCC(C)SC(C)c1ccccc1NC(=O)c1cn(C)nc1C(F)(F)F (stereo not drawn) [drawing 498]
pest or weed control at 500 g/ha [5]: 100%

Structure (SMILES): CC(C)OC(C)c1ccccc1NC(=O)c1cn(C)nc1C(F)F (stereo not drawn) [drawing 499]
pest or weed control at 500 g/ha [5]: 100%

Structure (SMILES): CC(C)OC(C)c1ccccc1NC(=O)c1cn(C)nc1C(F)(F)F (stereo not drawn) [drawing 500]
pest or weed control at 500 g/ha [5]: 100%

Structure (SMILES): Cc1nn(C)c(F)c1C(=O)Nc1ccccc1C(C)SC(C)C (stereo not drawn) [drawing 502]
pest or weed control at 500 g/ha [5]: 100%

Structure (SMILES): CCC(C)SC(C)c1ccccc1NC(=O)c1cn(C)nc1C (stereo not drawn) [drawing 504]
pest or weed control at 500 g/ha [5]: 100%

Structure (SMILES): CCC(C)SC(C)c1ccccc1NC(=O)c1sc(C)nc1C(F)F (stereo not drawn) [drawing 505]
pest or weed control at 500 g/ha [5]: 100%

Structure (SMILES): CCCC(C)SC(C)c1ccccc1NC(=O)c1sc(C)nc1C(F)F (stereo not drawn) [drawing 506]
pest or weed control at 500 g/ha [5]: 100%

Structure (SMILES): CCC(C)SC(C)c1ccccc1NC(=O)c1cn(C)nc1C(F)F (stereo not drawn) [drawing 507]
pest or weed control at 500 g/ha [5]: 100%

Structure (SMILES): CCC(C)SC(C)c1ccccc1NC(=O)C1=C(C)OCCS1 (stereo not drawn) [drawing 508]
pest or weed control at 500 g/ha [5]: 100%

Structure (SMILES): CC1=C(C(=O)Nc2ccccc2C(C)SC(C)C)SCCO1 (stereo not drawn) [drawing 509]
pest or weed control at 500 g/ha [5]: 100%

Structure (SMILES): CC(C)SC(C)c1ccccc1NC(=O)c1cn(C)cc1C(F)(F)F (stereo not drawn) [drawing 510]
pest or weed control at 500 g/ha [5]: 100%

Structure (SMILES): CC(C)OCc1ccccc1NC(=O)c1cn(C)nc1C(F)(F)F [drawing 515]
Degree of effectiveness in % [6]: 95%

Structure (SMILES): Cc1nn(C)c(F)c1C(=O)Nc1ccccc1C(C)SC(C)C (stereo not drawn) [drawing 516]
Degree of effectiveness in % [6]: 90%

Structure (SMILES): CCC(C)SC(C)c1ccccc1NC(=O)c1c(C)nn(C)c1F (stereo not drawn) [drawing 517]
Degree of effectiveness in % [6]: 95%
